US12533333B2, “Method of treatment of obesity” (Queen Mary University of London, priority 2016, dated 2026)
“Also recorded” adds a separate entry of the source.

Assays:
phosphorylated CaMKII [1] = experiment: pCaMKII activation in human colonic mucosa / proximal colon; type: cell-based; conditions: 100 MM (heading of Example 6), FIG. 9
phosphorylated CaMKII [2] = conditions: via GPR120, not via pERK; background; cited from earlier work
phosphorylated ERK [3] = experiment: pERK activation in human colonic mucosa / proximal colon; type: cell-based
[4] = in vivo; cited from earlier work
phosphorylated ERK [5] = conditions: human colonic mucosa / enteroendocrine cells, previously shown; cited from earlier work
[6] = infused into the small intestine through a nasogastric tube; cited from earlier work

For `CC/C=C\C/C=C\C/C=C\CCCCCCCC(=O)O` [ALA, (9Z,12Z,15Z)-9,12,15-Octadecatrienoic acid], the “expression of cell activation marker pCamKii” value (phosphorylated CaMKII [1]) is listed as “potently induce expression; also recorded: activate”, the “activation of pCalmodulin kinase II (pCAMKII)” value (phosphorylated CaMKII [2]) is listed as “activate” and the “expression of cell activation marker pERK” value (phosphorylated ERK [3]; human colonic mucosa, 100 MM (heading of Example 6), FIG. 9) is listed as “potently induce expression; also recorded: activate”.
With `c1ccc2c(Cc3c[nH]c4ccccc34)c[nH]c2c1` [DIM, 3,3′-diindolylmethane] the “activation of pERK in colonocytes” value (phosphorylated ERK [3]; in combination with GPR120 agonist TUG891 and GPR84 agonist lauric acid (FIG. 8)) was “potently activates”.
In the case of `CCCCCCCCCCCC(=O)O` [lauric acid], the “plasma levels of glucagon-like peptide-1 (GLP-1)” value [4] is listed as “increasing”, the “plasma levels of peptide YY (PYY)” value [4] is listed as “increasing” and the “activation of intracellular pathway as measured by phosphorylated ERK” value (phosphorylated ERK [5]) is listed as “activates”. For the same molecule, the food intake [6] was “reduces food intake more potently than other fatty acids”.
